Literature values, collected in patent US11478445B2, “Method for treating acute myeloid leukemia” (Bionomics Limited, priority 2017, dated 2022).

Experiments:
[1] = tested on: KG1 cells; details: Petit et al. 2008, Madlambayan et al. 2010; cited from earlier work
[2] = tested on: KG1 cells; details: Petit et al. 2008; cited from earlier work

Structure (SMILES)	total ROS levels [1]	cell cycle [2]
COc1ccc(/C=C\c2cc(OC)c(OC)c(OC)c2)c(O)c1O [OXi4500, combretastatin-A1]	increase in total ROS levels	
COc1ccc(/C=C\c2cc(OC)c(OC)c(OC)c2)cc1OP(=O)(O)O [combretastatin-A4-P]	increase in total ROS levels	induces G2/M cell cycle arrest
